Like-named read-outs stand apart in the source and are kept apart here.
Tested on: Passive Cutaneous Anaphylaxis
Test: Passive Cutaneous Anaphylaxis Test
Type: in vivo, Donryu-strain male rats
Details: Rattus norvegicus, dose required for 50% inhibition, rats sensitized with reagin serum, egg albumin challenge after 48 hours
Protocol: A test solution containing a test compound was administered orally 1 hour before, or intraperitoneally 30 minutes before challenge. The animals were killed 30 minutes after challenge, the skin reflected, and the responses measured and scored 0 for diameter of wheal less than 5 mm, 1 for 5-10 mm,[…] 3 for 15-20 mm and 4 for more than 20 mm. The percentage inhibition was calculated using the formula: [formula]

[1] = ip, 0.5 h, i.p., 30 minutes before challenge, read-out: ED50 i.p.
[2] = po, 1 hour before challenge, read-out: ED50 p.o.

SMILES	ED50 [1] [mg/kg]	ED50 [2] [mg/kg]
O=C([O-])c1ccc2oc3nc(-c4ccccc4)ccc3c(=O)c2c1.[Na+] [D, sodium 2-phenyl-5-oxo-5H-[1]benzopyrano[2,3-b]pyridine-7-carboxylate]	1	40
CC(=O)c1ccc2oc3ncccc3c(=O)c2c1 [A, 7-acetyl-5-oxo-5H-[1]benzopyrano[2,3-b]pyridine]	1	10
CC(C)C(=O)c1ccc2oc3ncccc3c(=O)c2c1 [B, 7isobutyryl-5-oxo-5H-[1]benzopyrano[2,3-b]pyridine]	1	25 to 50
O=C(O)c1ccc2oc3ncccc3c(=O)c2c1 [C, 5-oxo-5H-[1]benzopyrano[2,3-b]pyridine-7-carboxylic acid]	2	25

Source: patent US3931199A, “Benzopyrano and benzothiopyrano [2,3-6] pyridines” (Yoshitomi Pharmaceutical Industries, Ltd., priority 1973, dated 1976)
